Patent US9315531B2, “Titanocene-gold derivatives comprising thiolato ligands” (Research Foundation of the City University of New York, priority 2014, dated 2016)

System: UO31
Assay: Cell viability assay (XTT), UO31
Assay type: cell-based, human
Conditions: 72 h
From the text: Cell Culture: Human renal cell carcinoma lines A498, Caki-1 and UO31, as well as the human prostate carcinoma cell lines DU145 and PC3 were newly obtained for these studies from the American Type Culture Collection (ATCC) (Manassas, Va., USA) and cultured in Roswell Park Memorial Institute (RPMI-1640) (Mediatech Inc., Manassas, Va.) media containing 10% fetal bovine serum (FBS, Life Technologies, Grand Island, N.Y.), 1% Minimum Essential Media (MEM) nonessential amino acids (NEAA, Mediatech) and 1% penicillin-streptomycin (PenStrep, Mediatech). HEK-293T cells were newly purchased from ATCC (Manassas, Va., USA) and maintained in Dulbecco's modified Eagle's medium (DMEM) (Mediatech) supplemented with 10% FBS, 1% NEAA and 1% PenStrep. […]
Cell Viability Assay: Cells were seeded at a concentration of 5000 cells/90 μl per well of either RPMI or DMEM without phenol red and without antibiotics, supplemented with 10% FBS and 2 mM L-glutamine into tissue culture grade 96-well flat bottom microplates (BioLite Microwell Plate, Fisher Scientific, Waltham, Mass., USA) and grown for 24 h at 37° C. in a humidified incubator. […] The optical absorbance of each well in a 96-well plate was quantified using BioTek ELx808 absorbance microplate reader (BioTek Winooski, Vt.) set at 450 nm wavelength. The percentage of surviving cells was calculated from the ratio of absorbance of treated to untreated cells.

[(η-C5H5)2TiMe(μ-mba)Au(PPh3)] [Compound 2]
IC50 UO31: nanomolar range
